Values of other authors as cited in patent US9901554B2, “Biodegradable compositions suitable for controlled release” (INGELL TECHNOLOGIES HOLDING B.V., priority 2011, dated 2018).
Where two headings read alike, the source gives them in different places.

Molecule	solubility in water (small molecules and peptide)	solubility in water (model proteins)
Cc1ccc(-c2cc(C(F)(F)F)nn2-c2ccc(S(N)(=O)=O)cc2)cc1 [celecoxib]	below 1 ug/ml	–
bovine serum albumin: water soluble model protein (Sigma)	–	above 10000 μg/ml
lysozyme: water soluble model protein of around 16 kDa (Sigma)	–	above 10000 μg/ml

The next lines start with results.

solubility in water (small molecules and peptide)	Molecule	solubility in water (model proteins)
above 5000 ug/ml	CN(CC(O)CO)C(=O)c1c(I)c(NC(=O)C(CO)CO)c(I)c(C(=O)N(C)CC(O)CO)c1I (centres unmarked) [iobitridol]	–
below 20 ug/ml	CC1(C)O[C@@H]2C[C@H]3[C@@H]4CCC5=CC(=O)C=C[C@]5(C)[C@@]4(F)[C@@H](O)C[C@]3(C)[C@]2(C(=O)CO)O1 [triamcinolone acetonide]	–
